Read-outs that look alike come from different tables or passages of the source.
Test: logP determined by HPLC
Type: physicochemical
[1] = preparation examples, where two values are given they are the stereoisomers of the product mixture
[2] = preparation examples, where two values are given they are the stereoisomers of the product mixture, read-out: HPLC: logP

Compound	chromatographic logP (E isomer, Example 2 product, read-out: HPLC: logP (E isomer))	chromatographic logP (HPLC, preparation examples, where two values are given they are the stereoisomers of the product mixture, read-out: HPLC: logP)	HPLC: logP [1]	chromatographic logP [2]
CO/N=C(/C1=NOCCO1)c1ccccc1O [Compound (I-1), E-(5,6-dihydro-[1,4,2]dioxazin-3-yl)-(2-hydroxy-phenyl)-methanone O-methyl-oxime]	1.24	1.22	–	–
CON=C1C(=NOCCO)Oc2ccccc21 [Compound (II-1), benzofuran-2,3-dione 2-[O-(2-hydroxy-ethyl)-oxime]3-(O-methyl-oxime)]	–	–	1.79	1.65
CON=C1COc2ccc(C)cc21 [(VI-2), 5-Methylbenzofuran-3-one O-methyl-oxime]	–	–	–	2.88

Further lines, results first:

chromatographic logP (E isomer, Example 2 product, read-out: HPLC: logP (E isomer))	chromatographic logP (HPLC, preparation examples, where two values are given they are the stereoisomers of the product mixture, read-out: HPLC: logP)	HPLC: logP [1]	chromatographic logP [2]	Compound
–	–	–	1.87	CON=C(C[N+](=O)[O-])c1ccccc1O [Compound (V-1), 1-(2-hydroxyphenyl)-2-nitro-ethanone O-methyl-oxime]
–	–	1.72	1.56	CON=C1C(=NO)Oc2ccccc21 [Compound (III-1), benzofuran-2,3-dione 3-(O-methyl-oxime) 2-oxime]

Source: patent US6437153B1, “Process for preparing 3-(1-hydroxyphenyl-1-alkoximinomethyl)dioxazines” (Bayer Aktiengesellschaft, priority 1996, dated 2002)
